Molecules are shown by their SMILES. Values joined by “and” are separate entries in the source; they are usually repeats but may differ in a detail not shown here. Equal values may be shown once.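 How tested: cells in 96-well plates exposed to compound for 48 hours at five concentrations. Abbreviation: GI50, concentration required for 50% inhibition of growth.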 Active and inactive are the calls of the source. Cut-off read from the data, not from the text of the source: active = GI50 up to about 1.1 µM and inactive = higher.

Experimental findings from ChEMBL document CHEMBL1201862, “PubChem BioAssay data set” (2004) are described below.

Test systems include COLO 205; HCT-15; HOP-92; HT-29; Malme-3M; NCI-H23; NCI-H522; OVCAR-8; PC-3; RXF 393; SF-268; SF-295; SK-MEL-28; SN12C; SNB-75; SR; UACC-257; HL-60; HCC 2998.
Holding throughout (test): NCI anticancer screen, dose series, 48 h

On to `NCCSc1nc(-c2ccccc2)c(-c2ccccc2)o1`, for which the GI50 with COLO 205 is > 100 µM (inactive); in the experiment with HCT-15, above 100 µM; in the experiment on HOP-92, > 100 µM (inactive); in the experiment on HT-29 it was 31.7 µM (inactive); in the experiment on Malme-3M it was > 100 µM (inactive); with NCI-H23 it was 17.7 µM (inactive). For the same compound, the GI50 with NCI-H522 is 29.6 µM (inactive); in the experiment on OVCAR-8, > 100 µM (inactive); with PC-3, > 100 µM (inactive); in the experiment with RXF 393, 42.2 µM (inactive); with SF-268, > 100 µM (inactive); in the experiment with SF-295, > 100 µM (inactive). Moreover, the GI50 in the experiment on SK-MEL-28 is > 100 µM (inactive); in the experiment with SN12C, 77.8 µM (inactive); with SNB-75, 21 µM (inactive); in the experiment on SR, 7.38 µM (inactive); with UACC-257, 41.2 µM (inactive).
As to `O=NC1C(Cl)C2CC1C1C(Br)C(Br)CC21` (stereo not given), the GI50 in the experiment with COLO 205 was > 100 µM (inactive); in the experiment on HCT-15, above 100 µM; with HL-60, > 100 µM (inactive); in the experiment on HOP-92, > 100 µM (inactive); in the experiment on HT-29, > 100 µM (inactive); with Malme-3M, > 100 µM (inactive). The GI50 in the experiment on NCI-H23, in the experiment with NCI-H522, in the experiment on OVCAR-8, with PC-3, in the experiment on RXF 393 and in the experiment on SF-268 was > 100 µM (inactive) throughout. Moreover, the GI50 is > 100 µM (inactive) in the experiment with SF-295; > 100 µM (inactive) with SK-MEL-28; > 100 µM (inactive) in the experiment on SN12C; > 100 µM (inactive) in the experiment with SNB-75; 48.9 µM (inactive) in the experiment on SR.
On to `COc1c(-c2ccccc2)nc2ccc(Oc3ccccc3)nn12`, for which the GI50 with COLO 205 is > 44.7 µM (inactive); in the experiment with HCC 2998, > 64.9 µM (inactive); in the experiment on HCT-15, 17.7 µM; with HL-60, 7.33 µM (inactive); with HOP-92, > 100 µM (inactive); with HT-29, 37 µM (inactive). In addition, the GI50 in the experiment with Malme-3M was 37.8 µM (inactive); in the experiment on NCI-H23, > 49 µM (inactive); in the experiment on NCI-H522 it was > 100 µM (inactive); with OVCAR-8, > 64 µM (inactive); with RXF 393, > 38.8 µM (inactive); in the experiment on SF-268, > 56.4 µM (inactive). For the same compound, the GI50 with SF-295 was > 62.8 µM (inactive); in the experiment with SK-MEL-28 it was > 51.8 µM (inactive); with SN12C, > 56.6 µM (inactive); in the experiment on SNB-75 it was > 57.5 µM (inactive); in the experiment on SR it was 13.8 µM (inactive); in the experiment on UACC-257, > 54.8 µM (inactive).
As to `CCOC(=N)CC(=O)Nc1ccccc1`, the GI50 with COLO 205 is > 46.5 µM (inactive); in the experiment with HCC 2998, > 31.6 µM (inactive); with HCT-15, 32.8 µM; with HL-60, > 100 µM (inactive); in the experiment with HOP-92, > 10 µM (inactive); in the experiment on HT-29, > 46.5 µM (inactive). Besides, the GI50 is > 46.5 µM (inactive) with Malme-3M; > 46.5 µM (inactive) in the experiment on NCI-H23; > 100 µM (inactive) with NCI-H522; > 21.5 µM (inactive) with OVCAR-8; > 46.5 µM (inactive) in the experiment with RXF 393; > 46.5 µM (inactive) in the experiment on SF-268. Also, the GI50 in the experiment with SF-295 was > 100 µM (inactive); in the experiment on SK-MEL-28, > 46.5 µM (inactive); with SN12C it was > 46.5 µM (inactive); with SNB-75, > 46.5 µM (inactive); in the experiment on SR, > 39.9 µM (inactive); in the experiment with UACC-257, > 46.5 µM (inactive).
As to `Nc1nc2c3nc(Nc4ccccc4)sc3nc(=O)n2c2sc(Nc3ccccc3)nc12`, the GI50 with COLO 205 was > 100 µM (inactive); in the experiment on HCC 2998, > 100 µM (inactive); in the experiment with HCT-15 it was above 100 µM; in the experiment on HL-60 it was > 100 µM (inactive); in the experiment with HOP-92, > 100 µM (inactive); with HT-29 it was > 100 µM (inactive). The GI50 in the experiment with Malme-3M, with NCI-H23, in the experiment with NCI-H522, in the experiment with OVCAR-8, with RXF 393 and with SF-268 was > 100 µM (inactive) in each case. Further, the GI50 in the experiment with SF-295, in the experiment with SK-MEL-28, with SN12C, in the experiment with SNB-75, in the experiment with SR and in the experiment on UACC-257 was > 100 µM (inactive) throughout.
For the compound `N=C1N(c2ccccc2)C(=O)C23CCCC2C13N1CCOCC1` (stereo not given), the GI50 was > 100 µM (inactive) with COLO 205; > 100 µM (inactive) in the experiment with HCC 2998; above 100 µM with HCT-15; > 100 µM (inactive) with HL-60; > 100 µM (inactive) with HOP-92; > 100 µM (inactive) in the experiment on HT-29. The GI50 in the experiment with Malme-3M, in the experiment on NCI-H23, in the experiment on NCI-H522, in the experiment with OVCAR-8, in the experiment with RXF 393 and with SF-268 was > 100 µM (inactive) each time. For the same compound, the GI50 in the experiment with SF-295, in the experiment on SK-MEL-28, in the experiment with SN12C, with SNB-75, in the experiment on SR and in the experiment on UACC-257 was > 100 µM (inactive) in each case.
For `NNC(=S)N/N=C(\CC1OC(=O)c2ccccc21)c1ccccc1O` (stereo not given), the GI50 with COLO 205 was 47 µM (inactive); in the experiment with HCC 2998, 32.7 µM (inactive); in the experiment with HCT-15, 55.8 µM; in the experiment on HL-60, 24.4 µM (inactive); in the experiment on HOP-92 it was 70.8 µM (inactive); in the experiment on HT-29, 61.5 µM (inactive). Also, the GI50 was 30.4 µM (inactive) in the experiment with Malme-3M; 49.9 µM (inactive) in the experiment with NCI-H23; 22.8 µM (inactive) in the experiment with NCI-H522; 30.8 µM (inactive) in the experiment with OVCAR-8; 36.4 µM (inactive) in the experiment with RXF 393; 50 µM (inactive) with SF-268. The GI50 with SF-295 is 20.3 µM (inactive); in the experiment with SK-MEL-28, 57.1 µM (inactive); in the experiment on SN12C it was 46.8 µM (inactive); in the experiment with SNB-75, 42.6 µM (inactive); in the experiment on SR, 16.3 µM (inactive); in the experiment with UACC-257, > 100 µM (inactive).
As to `O=C1C=Cc2c(-c3ccccc3)oc3cccc1c23`, the GI50 is 15.8 µM (inactive) in the experiment on COLO 205; 25.6 µM (inactive) in the experiment on HCC 2998; 5.97 µM in the experiment with HCT-15; 9.12 µM (inactive) in the experiment on HL-60; 13.4 µM (inactive) in the experiment with HOP-92; 23.4 µM (inactive) with HT-29. Besides, the GI50 is 37 µM (inactive) in the experiment with Malme-3M; 16.4 µM (inactive) in the experiment with NCI-H23; 15.3 µM (inactive) in the experiment on NCI-H522; 9.31 µM (inactive) in the experiment on OVCAR-8; 24.1 µM (inactive) with RXF 393; 21.1 µM (inactive) with SF-268. The GI50 in the experiment with SF-295 was 25.7 µM (inactive); with SK-MEL-28 it was 56.9 µM (inactive); with SN12C, 9.82 µM (inactive); with SNB-75 it was 4.33 µM (inactive); with SR, 10.1 µM (inactive); in the experiment with UACC-257 it was 35.4 µM (inactive).
As to `O=Cc1ccc(OC[C@H]2COC(=O)N2)cc1`, the GI50 was 72.4 µM (inactive) with COLO 205; 56.5 µM (inactive) in the experiment with HCC 2998; above 100 µM with HCT-15; > 100 µM (inactive) in the experiment on HL-60; > 100 µM (inactive) with HT-29; > 100 µM (inactive) in the experiment on Malme-3M. Also, the GI50 is > 100 µM (inactive) with NCI-H23; 52.4 µM (inactive) in the experiment on NCI-H522; > 100 µM (inactive) with OVCAR-8; > 100 µM (inactive) with PC-3; > 100 µM (inactive) with RXF 393; > 100 µM (inactive) in the experiment with SF-268. Also, the GI50 with SF-295, in the experiment on SK-MEL-28, with SN12C, in the experiment on SNB-75, with SR and in the experiment on UACC-257 was > 100 µM (inactive) each time.
On to `Cc1ccccc1NC(=O)CC1C(=O)Nc2ccccc2[S+]1[O-]` (stereo not given), for which the GI50 in the experiment on HCC 2998 is > 100 µM (inactive); in the experiment on HCT-15, above 100 µM; in the experiment on HL-60, > 100 µM (inactive); in the experiment with HOP-92, 52.7 µM (inactive); in the experiment with HT-29, > 100 µM (inactive); in the experiment on Malme-3M it was > 100 µM (inactive). Besides, the GI50 was > 100 µM (inactive) with NCI-H23; > 100 µM (inactive) with NCI-H522; 47.9 µM (inactive) in the experiment on OVCAR-8; 26.6 µM (inactive) in the experiment with RXF 393; > 100 µM (inactive) in the experiment on SF-268; > 100 µM (inactive) with SF-295. Moreover, the GI50 in the experiment with SK-MEL-28 is > 100 µM (inactive); in the experiment with SN12C, 74 µM (inactive); in the experiment with SNB-75, 25.6 µM (inactive); with SR, > 100 µM (inactive); with UACC-257, > 100 µM (inactive).
As for `COC(=O)[C@@H]1[C@H](O)[C@H](C)[C@H](O)[C@@](C)(O)/C=C\C=C(\C)C(=O)Nc2c(C)c(OC(C)=O)c3c(c2O)C(=O)C(C)=C2OCOC(=C23)/C(C)=C/[C@@](C)(O)[C@H](O)[C@@H](C)[C@H]1OC(C)=O`, the GI50 is 72.9 µM (inactive) and 14.6 µM (inactive) with COLO 205; 21.8 µM (inactive) in the experiment on HCC 2998; 26.9 µM in the experiment on HCT-15; 20.5 µM (inactive) in the experiment with HL-60; > 66.8 µM (inactive) in the experiment with HOP-92; 38.5 µM (inactive) and 56.6 µM (inactive) with HT-29. The GI50 with Malme-3M was 31.3 µM (inactive); with NCI-H23 it was 27.4 µM (inactive); in the experiment on NCI-H522 it was 47.2 µM (inactive) and 21.5 µM (inactive); in the experiment with OVCAR-8, 31.8 µM (inactive); in the experiment on PC-3 it was > 66.8 µM (inactive); in the experiment on RXF 393, 62.7 µM (inactive). Besides, the GI50 in the experiment with SF-268 is 4.76 µM (inactive); with SF-295, 88.5 µM (inactive); in the experiment with SK-MEL-28, > 100 µM (inactive); with SN12C it was 43.6 µM (inactive); in the experiment with SNB-75, > 66.8 µM (inactive); with UACC-257, 27.2 µM (inactive) and 80.4 µM (inactive).
